Activity calls are given as the source filed them. The calls are words filed in the database; no cut-off is given here.
Key:
[1] = molecular target: T1, Vitamin D3 receptor (Gallus gallus) (UniProt O42392); assay: Displacement of [3H]1,25-(OH)2-D3 from chick intestinal VDR relative to 1,25-(OH)2-D3
T1 sequence (whole entry): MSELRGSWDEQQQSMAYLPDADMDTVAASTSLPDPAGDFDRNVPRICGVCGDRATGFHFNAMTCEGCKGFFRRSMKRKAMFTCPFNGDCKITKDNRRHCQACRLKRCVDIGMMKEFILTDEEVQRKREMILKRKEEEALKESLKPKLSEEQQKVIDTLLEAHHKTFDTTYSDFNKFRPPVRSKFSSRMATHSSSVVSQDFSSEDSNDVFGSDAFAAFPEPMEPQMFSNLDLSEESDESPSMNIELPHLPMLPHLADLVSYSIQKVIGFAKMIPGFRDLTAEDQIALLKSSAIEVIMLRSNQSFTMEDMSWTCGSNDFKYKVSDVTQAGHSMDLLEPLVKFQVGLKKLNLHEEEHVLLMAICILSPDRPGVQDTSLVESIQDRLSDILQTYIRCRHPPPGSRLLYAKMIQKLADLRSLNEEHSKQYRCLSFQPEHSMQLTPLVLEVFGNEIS

[2] = molecular target: T2, Vitamin D3 receptor (Homo sapiens) (UniProt P11473); assay: Antagonist activity at VDR in human HL60 cells assessed as effect on 1,25-(OH)2-D3-induced cell differentiation at 3 uM by NBT assay; assay type: functional, cell-based; conditions: HL-60
T2 sequence (whole entry): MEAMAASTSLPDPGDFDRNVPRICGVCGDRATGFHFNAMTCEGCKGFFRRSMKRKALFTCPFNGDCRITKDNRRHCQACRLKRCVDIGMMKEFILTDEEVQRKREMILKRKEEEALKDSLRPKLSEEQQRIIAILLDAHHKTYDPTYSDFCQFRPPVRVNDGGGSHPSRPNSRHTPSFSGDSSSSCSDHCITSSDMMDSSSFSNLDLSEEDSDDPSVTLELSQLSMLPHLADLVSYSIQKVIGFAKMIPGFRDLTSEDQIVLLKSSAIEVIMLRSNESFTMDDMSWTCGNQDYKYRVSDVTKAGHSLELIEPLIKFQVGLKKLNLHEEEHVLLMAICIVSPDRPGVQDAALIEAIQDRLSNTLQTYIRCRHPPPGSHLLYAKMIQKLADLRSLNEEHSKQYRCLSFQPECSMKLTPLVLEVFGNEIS

[3] = molecular target: T2, Vitamin D3 receptor (Homo sapiens); assay: Antagonist activity at VDR in human HL60 cells assessed as effect on 1,25-(OH)2-D3-induced cell differentiation at 1 uM by NBT assay; assay type: functional, cell-based; conditions: HL-60
[4] = molecular target: T2, Vitamin D3 receptor (Homo sapiens); assay: Agonist activity at human VDR expressed in monkey COS7 cells at <10 uM by luciferase reporter gene assay; assay type: functional, cell-based; conditions: COS-7

| SMILES | relative binding affinity (RBA) [1] | Activity [2] | Activity [3] | Activity [4] |
| --- | --- | --- | --- | --- |
| C=C1/C(=C\C=C2/CCC[C@]3(C)[C@@H]([C@H](C)C[C@H]4C[C@](C)(O)C(=O)N4Cc4cc(OCCCC)cc(OCCCC)c4)CC[C@@H]23)C[C@@H](O)C[C@@H]1O | 18.2 | – | – | – |
| C=C1/C(=C\C=C2/CCC[C@]3(C)[C@@H]([C@H](C)C[C@H]4C[C@](C)(O)C(=O)N4Cc4cc(C(F)(F)F)cc(C(F)(F)F)c4)CC[C@@H]23)C[C@@H](O)C[C@@H]1O | 138 | inactive | – | – |
| C=C1/C(=C\C=C2/CCC[C@]3(C)[C@@H]([C@H](C)C[C@@H]4C[C@@](C)(O)C(=O)N4CCc4cc(C(F)(F)F)cc(C(F)(F)F)c4)CC[C@@H]23)C[C@@H](O)C[C@@H]1O | 236 | inactive | – | – |
| C=C1/C(=C\C=C2/CCC[C@]3(C)[C@@H]([C@H](C)C[C@H]4C[C@@](C)(O)C(=O)N4Cc4cc(OC)cc(OC)c4)CC[C@@H]23)C[C@@H](O)C[C@@H]1O | 131 | – | – | – |
| C=C1/C(=C\C=C2/CCC[C@]3(C)[C@@H]([C@H](C)C[C@H]4C[C@](C)(O)C(=O)N4CCc4ccccc4)CC[C@@H]23)C[C@@H](O)C[C@@H]1O | 12.5 | – | – | – |
| C=C1/C(=C\C=C2/CCC[C@]3(C)[C@@H]([C@H](C)C[C@H]4C[C@](C)(O)C(=O)N4Cc4cc(OC)cc(OC)c4)CC[C@@H]23)C[C@@H](O)C[C@@H]1O | 1.9 | – | – | – |
| C=C1/C(=C\C=C2/CCC[C@]3(C)[C@@H]([C@H](C)C[C@@H]4C[C@](C)(O)C(=O)N4CCCc4cc(C(F)(F)F)cc(C(F)(F)F)c4)CC[C@@H]23)C[C@@H](O)C[C@@H]1O | < 5400 | – | inactive | – |
| C=C1/C(=C\C=C2/CCC[C@]3(C)[C@@H]([C@H](C)C[C@@H]4C[C@](C)(O)C(=O)N4CCc4cc(C(F)(F)F)cc(C(F)(F)F)c4)CC[C@@H]23)C[C@@H](O)C[C@@H]1O | 757 | inactive | – | – |
| C=C1/C(=C\C=C2/CCC[C@]3(C)[C@@H]([C@H](C)C[C@H]4C[C@@](C)(O)C(=O)N4Cc4cc(C(F)(F)F)cc(C(F)(F)F)c4)CC[C@@H]23)C[C@@H](O)C[C@@H]1O | < 1520 | inactive | – | – |
| C=C1/C(=C\C=C2/CCC[C@]3(C)[C@@H]([C@H](C)C[C@@H]4C[C@@](C)(O)C(=O)N4CCCc4cc(C(F)(F)F)cc(C(F)(F)F)c4)CC[C@@H]23)C[C@@H](O)C[C@@H]1O | < 5400 | – | inactive | – |
| C=C1/C(=C\C=C2/CCC[C@]3(C)[C@@H]([C@H](C)C[C@H]4C[C@@](C)(O)C(=O)N4CCCc4cc(C(F)(F)F)cc(C(F)(F)F)c4)CC[C@@H]23)C[C@@H](O)C[C@@H]1O | < 5400 | – | inactive | – |
| C=C1/C(=C\C=C2/CCC[C@]3(C)[C@@H]([C@H](C)C[C@H]4C[C@](C)(O)C(=O)N4CCc4cc(C(F)(F)F)cc(C(F)(F)F)c4)CC[C@@H]23)C[C@@H](O)C[C@@H]1O | 42 | inactive | – | – |
| C=C1/C(=C\C=C2/CCC[C@]3(C)[C@@H]([C@H](C)C[C@H]4C[C@](C)(O)C(=O)N4Cc4cc(OCCC)cc(OCCC)c4)CC[C@@H]23)C[C@@H](O)C[C@@H]1O | 11.9 | – | – | – |
| C=C1/C(=C\C=C2/CCC[C@]3(C)[C@@H]([C@H](C)C[C@H]4C[C@](C)(O)C(=O)N4Cc4cc(OCC)cc(OCC)c4)CC[C@@H]23)C[C@@H](O)C[C@@H]1O | 3.5 | – | – | – |
| C=C1/C(=C\C=C2/CCC[C@]3(C)[C@@H]([C@H](C)C[C@H]4C[C@](C)(O)C(=O)N4CCCc4cc(C(F)(F)F)cc(C(F)(F)F)c4)CC[C@@H]23)C[C@@H](O)C[C@@H]1O | 181 | – | inactive | – |
| C=C1/C(=C\C=C2/CCC[C@]3(C)[C@@H]([C@H](C)C[C@@H]4C[C@@](C)(O)C(=O)N4Cc4cc(C(F)(F)F)cc(C(F)(F)F)c4)CC[C@@H]23)C[C@@H](O)C[C@@H]1O | < 1520 | inactive | – | – |
| C=C1/C(=C\C=C2/CCC[C@]3(C)[C@@H]([C@H](C)C[C@H]4C[C@@](C)(O)C(=O)N4CCc4cc(C(F)(F)F)cc(C(F)(F)F)c4)CC[C@@H]23)C[C@@H](O)C[C@@H]1O | 1180 | inactive | – | – |
| C=C1/C(=C\C=C2/CCC[C@]3(C)[C@@H]([C@H](C)C[C@H]4C[C@](C)(O)C(=O)N4Cc4ccccc4)CC[C@@H]23)C[C@@H](O)C[C@@H]1O | 36.4 | – | – | – |
| C=C1/C(=C\C=C2/CCC[C@]3(C)[C@@H]([C@H](C)C[C@H]4C[C@](C)(O)C(=O)N4Cc4cc(O)cc(O)c4)CC[C@@H]23)C[C@@H](O)C[C@@H]1O | 9.6 | – | inactive | inactive |
| C=C1/C(=C\C=C2/CCC[C@]3(C)[C@@H]([C@H](C)C[C@@H]4C[C@](C)(O)C(=O)N4Cc4cc(C(F)(F)F)cc(C(F)(F)F)c4)CC[C@@H]23)C[C@@H](O)C[C@@H]1O | < 1520 | inactive | – | – |

The next lines start with the values.

| relative binding affinity (RBA) [1] | Activity [2] | Activity [3] | Activity [4] | SMILES |
| --- | --- | --- | --- | --- |
| < 1520 | inactive | – | – | C=C1/C(=C\C=C2/CCC[C@]3(C)[C@@H]([C@H](C)C[C@@H]4C[C@@](C)(O)C(=O)N4CCCc4cc(OC)cc(OC)c4)CC[C@@H]23)C[C@@H](O)C[C@@H]1O |
| < 1520 | – | inactive | – | C=C1/C(=C\C=C2/CCC[C@]3(C)[C@@H]([C@H](C)C[C@H]4C[C@@](C)(O)C(=O)N4CCc4cc(OC)cc(OC)c4)CC[C@@H]23)C[C@@H](O)C[C@@H]1O |
| 60 | – | – | – | C=C1/C(=C\C=C2/CCC[C@]3(C)[C@@H]([C@H](C)C[C@@H]4C[C@](C)(O)C(=O)N4Cc4cc(OC)cc(OC)c4)CC[C@@H]23)C[C@@H](O)C[C@@H]1O |
| 284 | – | inactive | – | C=C1/C(=C\C=C2/CCC[C@]3(C)[C@@H]([C@H](C)C[C@@H]4C[C@@](C)(O)C(=O)N4CCc4cc(OC)cc(OC)c4)CC[C@@H]23)C[C@@H](O)C[C@@H]1O |
| < 1520 | inactive | – | – | C=C1/C(=C\C=C2/CCC[C@]3(C)[C@@H]([C@H](C)C[C@@H]4C[C@](C)(O)C(=O)N4CCCc4cc(OC)cc(OC)c4)CC[C@@H]23)C[C@@H](O)C[C@@H]1O |
| < 1520 | inactive | – | – | C=C1/C(=C\C=C2/CCC[C@]3(C)[C@@H]([C@H](C)C[C@H]4C[C@@](C)(O)C(=O)N4CCCc4cc(OC)cc(OC)c4)CC[C@@H]23)C[C@@H](O)C[C@@H]1O |
| 57 | – | – | – | C=C1/C(=C\C=C2/CCC[C@]3(C)[C@@H]([C@H](C)C[C@H]4C[C@](C)(O)C(=O)N4CCCc4cc(OC)cc(OC)c4)CC[C@@H]23)C[C@@H](O)C[C@@H]1O |
| 12 | – | – | – | C=C1/C(=C\C=C2/CCC[C@]3(C)[C@@H]([C@H](C)C[C@H]4C[C@](C)(O)C(=O)N4CCc4cc(OC)cc(OC)c4)CC[C@@H]23)C[C@@H](O)C[C@@H]1O |
| < 1520 | – | inactive | – | C=C1/C(=C\C=C2/CCC[C@]3(C)[C@@H]([C@H](C)C[C@@H]4C[C@](C)(O)C(=O)N4CCc4cc(OC)cc(OC)c4)CC[C@@H]23)C[C@@H](O)C[C@@H]1O |
| 185 | – | – | – | C=C1/C(=C\C=C2/CCC[C@]3(C)[C@@H]([C@H](C)C[C@@H]4C[C@@](C)(O)C(=O)N4Cc4cc(OC)cc(OC)c4)CC[C@@H]23)C[C@@H](O)C[C@@H]1O |
